Key:
[1] = biological target: T1, Serotonin 5HT6 (Homo sapiens, UniProt P50406); assay: Radioligand binding, Serotonin 5HT6 ([3H]LSD)
T1 construct: host or cells: HeLa cells
Protocol: (§1) The assays utilized human neuroreceptors and were performed under the experimental parameters set forth in Table 2 using standard techniques.
(§2) For Table 3, IC50 values were determined by non-linear, least squares regression analysis using Data Analysis Toolbox™ (MDL Information Systems, San Leandro, Calif., USA). Inhibition constants (KI) were calculated using the equation of Cheng and Prusoff (Cheng, Y., et al. Biochem. Pharmacol. 22:3099-3108, 1973) using the observed IC50 of the tested compound, the concentration of radioligand employed in the assay, and the values for the KD of the ligand. The Hill coefficient (nH), defining the slope of the competitive binding curve, was calculated using the Data Analysis Toolbox™. Biochemical assay results are presented as the percent inhibition of specific binding or activity unless indicated otherwise. The experiments summarized in Table 3 utilized human dopamine D1, D2 s, D21, D3, D4.2, D4.4, serotonin 5HT1A, 5HT2A, 5HT2C, 5HT6, 5HT7, dopamine transporter (DAT), serotonin transporter (SERT) and the norepinephrine transporter (NET), as indicated in Table 3.

[2] = biological target: Dopamine D1 (Homo sapiens, UniProt P21728); assay: Radioligand binding, Dopamine D1; settings: Dopamine D1, 10 μM; read-out: Percentage Inhibition
Dopamine D1, sequence (P21728 whole entry): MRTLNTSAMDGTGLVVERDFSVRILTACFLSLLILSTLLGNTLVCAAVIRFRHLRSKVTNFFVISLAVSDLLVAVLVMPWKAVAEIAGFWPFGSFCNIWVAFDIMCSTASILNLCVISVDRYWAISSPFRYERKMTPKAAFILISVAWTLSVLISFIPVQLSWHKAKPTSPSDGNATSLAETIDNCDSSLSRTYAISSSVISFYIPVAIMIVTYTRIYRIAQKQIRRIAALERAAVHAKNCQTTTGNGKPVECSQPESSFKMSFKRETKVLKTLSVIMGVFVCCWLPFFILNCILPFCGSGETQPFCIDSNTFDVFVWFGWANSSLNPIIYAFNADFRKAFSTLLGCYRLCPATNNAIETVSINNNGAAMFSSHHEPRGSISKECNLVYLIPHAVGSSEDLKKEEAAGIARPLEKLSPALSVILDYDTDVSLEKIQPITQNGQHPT
Protocol: as §1, §2

[3] = biological target: T2, Serotonin 5HT1A (Homo sapiens, UniProt P08908); assay: Radioligand binding, Serotonin 5HT1A; settings: read-out: Percentage Inhibition
T2 sequence (P08908 1-422): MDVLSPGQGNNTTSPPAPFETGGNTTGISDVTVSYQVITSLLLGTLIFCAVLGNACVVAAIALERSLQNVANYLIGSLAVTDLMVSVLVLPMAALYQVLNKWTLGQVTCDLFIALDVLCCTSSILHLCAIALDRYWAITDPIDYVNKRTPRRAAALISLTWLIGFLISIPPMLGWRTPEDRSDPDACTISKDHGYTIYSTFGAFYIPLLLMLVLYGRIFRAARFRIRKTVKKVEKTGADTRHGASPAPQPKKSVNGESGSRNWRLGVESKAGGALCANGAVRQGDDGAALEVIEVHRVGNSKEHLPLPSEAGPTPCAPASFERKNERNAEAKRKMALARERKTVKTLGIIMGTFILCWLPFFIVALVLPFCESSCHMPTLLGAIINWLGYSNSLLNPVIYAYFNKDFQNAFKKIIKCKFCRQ
Protocol: as §1, §2

[4] = biological target: Dopamine D3 (Homo sapiens, UniProt P35462); assay: Radioligand binding, Dopamine D3; settings: Dopamine D3, 10 μM; read-out: Percentage Inhibition
Dopamine D3, sequence (P35462 whole entry): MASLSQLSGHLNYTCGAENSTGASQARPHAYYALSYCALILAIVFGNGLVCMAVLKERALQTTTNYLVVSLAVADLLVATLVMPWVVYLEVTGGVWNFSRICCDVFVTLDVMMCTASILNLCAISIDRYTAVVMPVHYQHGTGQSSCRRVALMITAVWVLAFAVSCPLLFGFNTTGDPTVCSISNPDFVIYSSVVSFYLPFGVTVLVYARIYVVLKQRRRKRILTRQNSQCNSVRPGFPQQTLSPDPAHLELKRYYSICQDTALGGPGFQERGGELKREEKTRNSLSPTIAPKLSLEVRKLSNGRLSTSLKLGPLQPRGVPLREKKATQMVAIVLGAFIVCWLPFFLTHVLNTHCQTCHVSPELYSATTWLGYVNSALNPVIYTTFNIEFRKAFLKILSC
Protocol: as §1, §2

[5] = biological target: T3, Dopamine D2L (Homo sapiens, UniProt P14416); assay: Radioligand binding, Dopamine D2L ([3H]Spiperone)
T3 construct: host or cells: CHO cells
T3 sequence (P14416 whole entry): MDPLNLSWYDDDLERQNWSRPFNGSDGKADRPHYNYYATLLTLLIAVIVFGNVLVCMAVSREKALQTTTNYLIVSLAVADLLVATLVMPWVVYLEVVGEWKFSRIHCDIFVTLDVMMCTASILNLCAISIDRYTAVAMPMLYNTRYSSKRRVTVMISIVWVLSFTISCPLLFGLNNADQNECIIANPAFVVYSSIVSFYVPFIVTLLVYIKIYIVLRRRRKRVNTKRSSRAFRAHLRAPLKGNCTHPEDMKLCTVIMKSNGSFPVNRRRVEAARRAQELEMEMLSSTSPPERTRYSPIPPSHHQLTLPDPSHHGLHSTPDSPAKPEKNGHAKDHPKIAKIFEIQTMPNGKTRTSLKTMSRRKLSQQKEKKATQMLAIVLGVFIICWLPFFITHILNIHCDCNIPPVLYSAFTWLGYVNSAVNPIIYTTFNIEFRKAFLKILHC
Protocol: as §1, §2

[6] = biological target: T4, Dopamine transporter (DAT) (Homo sapiens, UniProt Q01959); assay: Radioligand binding, Dopamine transporter (DAT) ([125I]RTI-55)
T4 construct: host or cells: CHO-K1 cells
T4 sequence (Q01959 whole entry): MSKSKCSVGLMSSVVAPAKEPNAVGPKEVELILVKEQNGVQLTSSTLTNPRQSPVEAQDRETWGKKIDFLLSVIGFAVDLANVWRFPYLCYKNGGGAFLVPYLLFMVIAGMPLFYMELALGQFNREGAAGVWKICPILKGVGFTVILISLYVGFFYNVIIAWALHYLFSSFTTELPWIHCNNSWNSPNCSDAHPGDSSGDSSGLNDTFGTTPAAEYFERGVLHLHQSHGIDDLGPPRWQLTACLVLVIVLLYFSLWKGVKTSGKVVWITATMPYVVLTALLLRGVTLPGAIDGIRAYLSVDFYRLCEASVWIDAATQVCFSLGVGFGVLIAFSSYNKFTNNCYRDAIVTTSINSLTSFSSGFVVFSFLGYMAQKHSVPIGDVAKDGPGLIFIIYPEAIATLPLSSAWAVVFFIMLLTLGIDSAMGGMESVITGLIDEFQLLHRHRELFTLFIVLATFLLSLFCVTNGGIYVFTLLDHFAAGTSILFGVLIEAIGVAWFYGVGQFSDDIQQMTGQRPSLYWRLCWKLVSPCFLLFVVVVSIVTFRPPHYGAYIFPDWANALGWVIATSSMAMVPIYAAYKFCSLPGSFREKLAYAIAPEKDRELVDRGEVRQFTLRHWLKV
Protocol: as §1, §2

[7] = biological target: T5, Dopamine D2s (Homo sapiens, UniProt P14416); assay: Radioligand binding, Dopamine D2S ([3H]Spiperone)
T5 construct: host or cells: CHO cells
T5 sequence (P14416 1-414 isoform P14416-2): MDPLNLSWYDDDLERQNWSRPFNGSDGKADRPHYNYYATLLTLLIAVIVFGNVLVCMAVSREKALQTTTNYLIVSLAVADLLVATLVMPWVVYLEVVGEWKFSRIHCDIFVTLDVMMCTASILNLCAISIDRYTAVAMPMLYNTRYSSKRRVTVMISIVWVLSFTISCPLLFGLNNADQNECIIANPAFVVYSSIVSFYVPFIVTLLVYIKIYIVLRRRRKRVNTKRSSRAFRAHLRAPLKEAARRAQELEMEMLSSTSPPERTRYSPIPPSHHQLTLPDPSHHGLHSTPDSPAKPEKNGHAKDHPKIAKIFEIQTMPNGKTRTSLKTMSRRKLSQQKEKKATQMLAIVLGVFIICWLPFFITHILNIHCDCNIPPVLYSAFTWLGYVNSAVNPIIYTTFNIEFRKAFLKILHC
Protocol: as §1, §2

[8] = biological target: T6, Dopamine D4.2 (Homo sapiens, UniProt P21917, DEL265-296); assay: Radioligand binding, Dopamine D4.2 ([3H]Spiperone)
T6 construct: host or cells: CHO-K1 cells
T6 sequence (P21917 with tags, fused parts or gaps DEL265-296): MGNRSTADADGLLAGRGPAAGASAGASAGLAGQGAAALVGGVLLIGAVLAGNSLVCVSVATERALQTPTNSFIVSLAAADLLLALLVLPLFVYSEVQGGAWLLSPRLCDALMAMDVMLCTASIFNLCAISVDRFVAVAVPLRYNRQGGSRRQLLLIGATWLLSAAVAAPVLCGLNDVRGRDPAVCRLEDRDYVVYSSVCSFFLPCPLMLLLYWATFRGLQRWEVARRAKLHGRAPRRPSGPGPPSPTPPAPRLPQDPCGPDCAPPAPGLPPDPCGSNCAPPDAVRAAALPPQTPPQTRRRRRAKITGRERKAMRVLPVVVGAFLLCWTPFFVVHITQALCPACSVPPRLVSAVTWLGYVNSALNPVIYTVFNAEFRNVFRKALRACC
Protocol: as §1, §2

[9] = biological target: T7, Serotonin 5HT2C (Homo sapiens, UniProt P28335); assay: Radioligand binding, Serotonin 5HT2C ([3H]Mesulergine)
T7 construct: host or cells: CHO-K1 cells
T7 sequence (P28335 33-458): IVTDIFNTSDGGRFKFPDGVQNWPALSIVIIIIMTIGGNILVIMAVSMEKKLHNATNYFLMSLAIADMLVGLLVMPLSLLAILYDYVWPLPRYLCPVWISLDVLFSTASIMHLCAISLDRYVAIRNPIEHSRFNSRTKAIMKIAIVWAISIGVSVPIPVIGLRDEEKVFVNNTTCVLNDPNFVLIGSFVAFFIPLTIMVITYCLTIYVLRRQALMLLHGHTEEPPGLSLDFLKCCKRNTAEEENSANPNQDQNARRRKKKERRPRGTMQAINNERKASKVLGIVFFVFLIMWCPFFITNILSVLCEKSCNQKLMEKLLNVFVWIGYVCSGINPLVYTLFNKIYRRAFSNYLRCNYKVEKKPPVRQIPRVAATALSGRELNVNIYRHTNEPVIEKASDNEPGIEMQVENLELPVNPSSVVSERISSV
Protocol: as §1, §2

T1 sequence (P50406 whole entry): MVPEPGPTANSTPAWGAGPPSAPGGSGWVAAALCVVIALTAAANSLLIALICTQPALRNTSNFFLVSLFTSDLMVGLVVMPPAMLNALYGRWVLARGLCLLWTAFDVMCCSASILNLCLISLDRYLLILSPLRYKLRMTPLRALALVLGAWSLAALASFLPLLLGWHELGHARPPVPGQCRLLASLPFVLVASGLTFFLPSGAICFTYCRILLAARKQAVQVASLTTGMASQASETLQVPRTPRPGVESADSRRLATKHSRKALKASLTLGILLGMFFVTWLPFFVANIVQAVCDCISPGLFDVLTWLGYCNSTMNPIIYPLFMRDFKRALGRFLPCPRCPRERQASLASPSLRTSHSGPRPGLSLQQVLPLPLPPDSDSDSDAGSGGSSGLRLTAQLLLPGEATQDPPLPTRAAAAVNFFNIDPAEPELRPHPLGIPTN

SMILES: COC(=O)[C@@H](c1ccc(-c2ccccc2)cc1)[C@H]1C=CCCN1 [Compound 2]
- IC50 [1]: 94.5 µM
- Ki [1]: 43.9 µM
- inhibition at 100 µM ([1]; Serotonin 5HT6, 100 μM, read-out: Percentage Inhibition): 53%
- nH ([1]; Serotonin 5HT6, Hill coefficient): 1.12
- inhibition at 10 µM [2]: 17%
- inhibition at 10 µM [3]: 13%
- inhibition at 10 µM [4]: 15%
- IC50 [5]: 88.2 µM
- Ki [5]: 29.4 µM
- inhibition at 10 µM ([5]; Dopamine D2l, 10 μM, read-out: Percentage Inhibition): 13%
- inhibition at 100 µM ([5]; Dopamine D2l, 100 μM, read-out: Percentage Inhibition): 54%
- nH ([5]; Dopamine D2l, Hill coefficient): 0.716
- IC50 [6]: 13.8 µM
- Ki [6]: 11 µM
- inhibition at 10 µM ([6]; Dopamine transporter (DAT), 10 μM, read-out: Percentage Inhibition): 33%
- inhibition at 100 µM ([6]; Dopamine transporter (DAT), 100 μM, read-out: Percentage Inhibition): 74%
- nH ([6]; Dopamine transporter (DAT), Hill coefficient): 1.3
- IC50 [7]: 51.8 µM
- Ki [7]: 18.7 µM
- inhibition at 10 µM ([7]; Dopamine D2s, 10 μM, read-out: Percentage Inhibition): 26%
- inhibition at 100 µM ([7]; Dopamine D2s, 100 μM, read-out: Percentage Inhibition): 62%
- nH ([7]; Dopamine D2s, Hill coefficient): 0.788
- IC50 [8]: 50.5 µM
- Ki [8]: 19.7 µM
- nH ([8]; Dopamine D4.2, Hill coefficient): 1.76
- Percentage Inhibition ([8]; Dopamine D4.2, concentration 100 (unit not given)): 79%
- IC50 [9]: 13.4 µM
- Ki [9]: 7.03 µM
- inhibition at 10 µM ([9]; Serotonin 5HT2C, 10 μM, read-out: Percentage Inhibition): 52%
- inhibition at 30 µM ([9]; Serotonin 5HT2C, 30 μM, read-out: Percentage Inhibition): 70%
- nH ([9]; Serotonin 5HT2C, Hill coefficient): 1.12

From patent publication US7851487B2, “Use of tetrahydropyridines in the treatment of central nervous system disorders” (The Research Foundation of State University of New York, priority 2006, dated 2010)
